Assay results taken from US20240092779A1, “USP1 INHIBITORS AND USES THEREOF” (Zentaur Therapeutics USA Inc., priority 2022, published 2024).
pIC50: −log10 of the molar value.

Tests used:
[1] = test system: HCC1806 Ub-PCNA (USP1); test: USP1 Western Blot Protocol (HCC1806 Ub-PCNA); type: cell-based; conditions: HCC1806 cells, 4 hours
Text: USP1 Western Blot Protocol (HCC1806 Ub-PCNA)
USP1 is a deubiquitinase that catalyze the hydrolysis of iso-peptide bond between ubiquitin and the substrate proteins. Inhibition of USP1 activity results in accumulation of mono-ubiquitinated substrate such as Ub-PCNA. A cell assay was set up to determine the cellular potency of USP1 compounds by monitoring the accumulation of Ub-PCNA. The signal intensity was detected by a specific Ub-PCNA antibody through Western-blot analysis.
The assay was initiated by seeding HCC1806 cells (ATCC, CRL-2335) into 6-well plates (Corning, 3516), with a seeding density of 3×10^5 cells per well and 2 mL RPMI 1640 culture medium (Gibco, 11875119). The plates were incubated overnight at 37° C. and 5% CO2. Compounds, solubilized in DMSO (Solarbio, D8371) as 1 mM stock solution, were diluted in 4-fold steps for 5-cencentration point dose response plus a no-compound DMSO control. Diluted compounds (2 μL) were transferred into assay wells (with a final DMSO concentration of −0.1%) and the resulted assay plates incubated at 37° C. and 5% CO2 for 4 hours. After aspiration of culture medium, 100 μL of 4° C. RIPA lysis buffer (Boston BioProducts, BP-115D) supplemented with vendor recommended concentrations of protease (Roche, 4693116001) and phosphatase (Roche, 4906837001) inhibitor, was added to each well and incubated for 10 minutes on the ice. Cells were scrapped loose from the bottom of well with a scraper (Corning, 3008), transferred into a 600 μL EP tube, sonicated using Ultrasound (Qsonica, Q800R3, with 30% energy, 5-second pulse on/off cycles at 4° C., for total 2 minutes), centrifuged 13,000 rpm for 15 minutes at 4° C., and then the supernatant transferred to a new 600 μL EP tube. The total protein concentration was determined using BCA kit following vendor recommended protocol (Solarbio, PC0020-500). Loading samples were prepared by diluting the total protein concentration to 1.5 μg/μL with 5 X NuPAGE SDS loading buffer (Beyotime, P0015L) and RIPA lysis buffer, and boiling at 100° C. for 5 minutes.
15 μg protein from each sample was loaded onto NuPAGE® Novex 4-12% Bis-Tris Midi Gel, 26 W (Invitrogen, WG1403BOX) and electrophoresis was run at 80 V for 30 minutes and 120 V till the end using 1x NuPAGE® MOPS SDS Running Buffer (Novex, NP0001). The gel was then transferred to nitrocellulose membrane using the dry transfer system (iBlot 2 Transfer Stacks, nitrocellulose, D323001) with a program consisting of 20 V for 1 minute, 23 V for 4 minutes and 25 V for 2 minutes. After the membrane was blocked with 5% BSA (Solarbio, A8020) in 1X TBST (CST, 9997S) for 1 hour at room temperature, specific antibodies (Ubiquityl-PCNA antibody (CST, 13439) at 1:500 dilution, PCNA antibody (Santa Cruz, sc-56) at 1:1000 dilution, and GAPDH (CST, 5174) at 1:2000 dilution in 1 X TBST containing 1% BSA) were added and incubated at room temperature for 1.5 hours. After washing the Nitrocellulose membranes with 1 X TBST for 3 times, 10 minutes each time at room temperature, fluorescently labeled secondary antibodies (anti-rabbit IgG, Licor, 926-32211; anti-mouse IgG, LI-COR, 926-68070) at 1:5000 dilution in 1 X TBST containing 1% BSA were added and incubated for 1 hour at room temperature in the dark. The membranes were then rinsed with 1 X TBST and immersed in the RO water. Imaging of band intensity was acquired with Li—COR imaging system (Li—COR, Odyssey clx ES).
Percentage of USP1 inhibition (% Vehicle) was calculated by using following equation examining Ub-PCNA upregulation:
And IC50 was calculated using four-parameter logistic fitting program • Y=Bottom+(Top-Bottom)/(1+10 {circumflex over (()}(LogIC50−X)*Hill Slope)) • X=Log of dose or concentration
(§1) Certain compounds were tested in the assays.

[2] = test system: MDA-MB-436 cells; test: CTG Protocol (MDA-MB-436 GI50), antiproliferative activity; type: cell-based, human; conditions: MDA-MB-436 cells (BRCA1 mutation), 7-day incubation, CellTiter-Glo
Description: CTG Protocol (MDA-MB-436 GI50)
Antiproliferative activity of USP1 inhibitors was determined using breast cancer cell line MDA-MB-436 that harbors BRCA1 mutation. MDA-MB-436 cells (ATCC, HTB-130) was seeded with a seeding density of 1000 cells per well and 95 μL DMEM medium (Gibco, 10566016) into 96-well cell plates (Corning, 3610), and incubated overnight at 37° C. and 5% CO2. Compounds were solubilized in DMSO (Solarbio, D8371) as 10 mM stock solution, and then series diluted (3 folds) with DMSO for 9-point dose-response testing. The resulted series dilutions were then jump-diluted 50-fold by cell culture medium to afford the 20×stock solutions (containing 2% DMSO). Treatment was initiated by adding 5 μL of 20×stock solution to the assay plate and incubated at 37° C. and 5% CO2. At the end of 7-day incubation, cell assay plates were removed from incubation and equilibrated to room temperature (20 min). Then 100 μL of CellTiter-Glo (Promega, G9243) reagent, prepared per manufacturer's protocol, was added to each well, and the resulted plates were centrifuged 1,000 rpm for 1 minute, incubated at room temperature in the dark for 20 minutes, sealed with Perkin Elmer sticky film, and the luminescence signal read by Envision (Perkin Elmer).
Data analysis • a) % Inhibition was calculated using following equation: […]
X: compound concentration; Y: % Inhibition
as §1

Row | SMILES | pIC50 ([1]; Homo sapiens) | GI50 ([2]; Homo sapiens, 168 h) [nM] | pIC50 [1] | GI50 [2] [nM]
1 | COc1ncnc(C2CC2)c1-c1ncc2ccc(=O)n(Cc3ccc(-c4ncc(F)cc4OC(C)C)cc3)c2n1 [Compound 67, 2-(4-cyclopropyl-6-methoxypyrimidin-5-yl)-8-{[4-(5-fluoro-3-isopropoxypyridin-2-yl)phenyl]methyl}pyrido[2,3-d]pyrimidin-7-one] | 7.00 to 8.00 | 10 to 100 | – | –
2 | COc1ncnc(C2CC2)c1-c1ncc2ccc(=O)n(Cc3ccc(-c4nc(C(F)(F)F)cn4C)cc3F)c2n1 [Compound 71, 2-(4-Cyclopropyl-6-Methoxypyrimidin-5-Yl)-8-({2-Fluoro-4-[1-Methyl-4-(Trifluoromethyl)Imidazol-2-Yl]Phenyl}Methyl)Pyrido[2,3-d]Pyrimidin-7-One] | 7.00 to 8.00 | 10 to 100 | – | –
3 | COc1ncnc(C2CC2)c1-c1ncc2ccc(=O)n(Cc3ccc(-c4nc(C(F)(F)F)c[nH]4)cc3)c2n1 [Compound 58, 2-(4-Cyclopropyl-6-Methoxypyrimidin-5-Yl)-8-({4-[4-(Trifluoromethyl)-1H-Imidazol-2-Yl]Phenyl}Methyl)Pyrido[2,3-d]Pyrimidin-7-One] | – | 10 to 100 | – | –
4 | COc1ncnc(C2CC2)c1-c1ncc2ccc(=O)n(Cc3ccc(-c4nc(C(F)(F)F)ccc4OC(C)C)cc3)c2n1 [Compound 75, 2-(4-Cyclopropyl-6-Methoxypyrimidin-5-Yl)-8-({4-[3-Isopropoxy-6-(Trifluoromethyl)Pyridin-2-Yl]Phenyl}Methyl)Pyrido[2,3-d]Pyrimidin-7-One] | 7.00 to 8.00 | 10 to 100 | – | –
5 | COc1ncnc(C2CC2)c1-c1ncc2cc(C)c(=O)n(Cc3ccc(-c4nc(C(F)(F)F)cn4C)cc3)c2n1 [Compound 78, 2-(4-cyclopropyl-6-methoxypyrimidin-5-yl)-6-methyl-8-({4-[1-methyl-4-(trifluoromethyl)imidazo]-2-yl]phenylmethyl)pyrido[2,3-d]pyrimidin-7-one] | – | – | 7.00 to 8.00 | 10 to 100
6 | Cc1cnn(C(C)C)c1-c1ncc2ccc(=O)n(Cc3ccc(-c4nc(C(F)(F)F)cn4C)cc3)c2n1 [Compound I-45, 2-(2-isopropyl-4-methylpyrazol-3-yl)-8-({4-[1-methyl-4-(trifluoromethyl)imidazol-2-yl]phenyl}methyl)pyrido[2,3-d]pyrimidin-7-one] | 7.00 to 8.00 | 10 to 100 | – | –
7 | COc1ncnc(C2CC2)c1-c1ncc2ccc(=O)n(Cc3ccc(-c4nc(C(F)(F)F)cn4C)c(F)c3)c2n1 [Compound 72, 2-(4-Cyclopropyl-6-Methoxypyrimidin-5-Yl)-8-({3-Fluoro-4-[1-Methyl-4-(Trifluoromethyl)Imidazol-2-Yl]Phenyl}Methyl)Pyrido[2,3-d]Pyrimidin-7-One] | 7.00 to 8.00 | < 10 | – | –
8 | COc1ncnc(C2CC2)c1-c1ncc2nc(-c3cn(C)cn3)c(=O)n(Cc3ccc(-c4nc(C(F)(F)F)cn4C4CC4)cc3)c2n1 [Compound I-160, 8-({4-[1-Cyclopropyl-4-(Trifluoromethyl)Imidazol-2-Yl]Phenyl}Methyl)-2-(4-Cyclopropyl-6-Methoxypyrimidin-5-Yl)-6-(1-Methylimidazol-4-Yl)Pteridin-7-One] | 7.00 to 8.00 | 10 to 100 | – | –
9 | COc1ncnc(C2CC2)c1-c1ncc2ccc(=O)n(Cc3ccc(-c4nc(C(F)(F)F)cn4C)cn3)c2n1 [Compound 88, 2-(4-Cyclopropyl-6-Methoxypyrimidin-5-Yl)-8-({5-[1-Methyl-4-(Trifluoromethyl)Imidazol-2-Yl]Pyridin-2-Yl}Methyl)Pyrido[2,3-d]Pyrimidin-7-One] | 7.00 to 8.00 | > 1000 | – | –
10 | COc1ncnc(C2CC2)c1-c1ncc2ccc(=O)n(C(C)c3ccc(-c4nc(C(F)(F)F)cn4C)cc3)c2n1 (centres unmarked) [Compound 62] | – | – | 7.00 to 8.00 | 10 to 100
11 | [2H]C([2H])([2H])Oc1ncnc(C2CC2)c1-c1ncc2ccc(=O)n(C([2H])([2H])c3ccc(-c4nc(C(F)(F)F)cn4C([2H])([2H])[2H])cc3)c2n1 [Compound 57, 2-[4-cyclopropyl-6-(2H3)methoxypyrimidin-5-yl]-8-({4-[1-(2H3)methyl-4-(trifluoromethyl)imidazol-2-yl]phenyl}(2H2)methyl)pyrido[2,3-d]pyrimidin-7-one] | > 8.00 | < 10 | – | –
12 | COc1ncnc(C2CC2)c1-c1ncc2cc(-c3cncc(F)c3)c(=O)n(Cc3ccc(-c4nc(C(F)(F)F)cn4C4CC4)cc3)c2n1 [Compound I-162] | > 8.00 | 10 to 100 | – | –
13 | COc1ncnc(C2CC2)c1-c1ncc2cc(-c3nccn3C)c(=O)n(Cc3ccc(-c4nc(C(F)(F)F)cn4C4CC4)cc3)c2n1 [Compound I-158] | 7.00 to 8.00 | 10 to 100 | – | –
14 | COc1ncnc(C2CC2)c1-c1ncc2ncc(=O)n(Cc3ccc(-c4nc(C(F)(F)F)cn4C(C)C)cc3)c2n1 [Compound I-29] | > 8.00 | < 10 | – | –
15 | COc1nn(C)cc1-c1cc2cnc(-c3c(OC)ncnc3C3CC3)nc2n(Cc2ccc(-c3nc(C(F)(F)F)cn3C3CC3)cc2)c1=O [Compound I-164] | 7.00 to 8.00 | 10 to 100 | – | –
16 | COc1ncnc(C2CC2)c1-c1ncc2cc(-c3cn(C)cn3)c(=O)n(Cc3ccc(-c4nc(C(F)(F)F)cn4C4CC4)cc3)c2n1 [Compound I-161, 8-({4-[1-cyclopropyl-4-(trifluoromethyl)imidazo]-2-yl]phenylmethyl)-2-(4-cyclopropyl-6-methoxypyrimidin-5-yl)-6-(1-methylimidazol-4-yl)pyrido[2,3-d]pyrimidin-7-one] | > 8.00 | 10 to 100 | – | –
17 | COc1ncnc(C2CC2)c1-c1ncc2cc(-c3nnc(C)o3)c(=O)n(Cc3ccc(-c4nc(C(F)(F)F)cn4C4CC4)cc3)c2n1 [Compound I-154] | 7.00 to 8.00 | 10 to 100 | – | –
18 | COc1ncnc(C2CC2)c1-c1ncc2cc(-c3nnc(C)n3C)c(=O)n(Cc3ccc(-c4nc(C(F)(F)F)cn4C4CC4)cc3)c2n1 [Compound I-149, 8-({4-[1-Cyclopropyl-4-(Trifluoromethyl)Imidazol-2-Yl]Phenyl}Methyl)-2-(4-Cyclopropyl-6-Methoxypyrimidin-5-Yl)-6-(4,5-Dimethyl-1,2,4-Triazol-3-Yl)Pyrido[2,3-d]Pyrimidin-7-One] | 7.00 to 8.00 | 10 to 100 | – | –
